Data on 21 molecules can be found in patent publication US10246453B2, “Benzenesulfonamide compounds and their use as therapeutic agents” (Xenon Pharmaceuticals Inc., priority 2016, dated 2019).

Data set [1] addresses T1, NaV1.1 (Homo sapiens (Human), UniProt P35498). Put plainly: Sodium Influx Assay (Flux), NaV1.1. The class given is cell-based. As to conditions: Trex HEK293 cells, ANG2 dye; arithmetic mean.
Data set [2] concerns the target T2, NaV1.5 (Homo sapiens (Human), UniProt Q14524). Nature of the data set: cell-based.
Data set [3] deals with T3, NaV1.6 (Homo sapiens (Human), UniProt Q9UQD0). Put plainly: Sodium Influx Assay (Flux), NaV1.6.
The target of data set [4] is T3, NaV1.6. Nature of the data set: Electrophysiological Assay (EP), patch voltage clamp, NaV1.6. The format is cell-based. As to conditions: HEK-293 cells, whole-cell patch clamp, inactivated state; arithmetic mean. Background: The patch-clamp technique gives a direct electrical read-out from membranes.
Data set [5] deals with T1, NaV1.1. Nature of the data set: Electrophysiological Assay (EP), patch voltage clamp, NaV1.1. The class given is cell-based. As to conditions: HEK-293 cells, whole-cell patch clamp, inactivated state; arithmetic mean.
Data set [6] addresses T2, NaV1.5.
Data set [7] has as its target T2, NaV1.5. Nature of the data set: Sodium Influx Assay (Flux), NaV1.5. As to conditions: read-out: Flux NaV1.5 IC50; Trex HEK293 cells, ANG2 dye; arithmetic mean.
The mark [8] stands for this setting: read-out: Flux NaV1.6 IC50, Trex HEK293 cells, ANG2 dye, arithmetic mean.

Usually pIC50 stands for the negative decadic logarithm of the IC50, by convention in mol/L.

pIC50: −log10 of the molar value. Where a name gives a salt, the structure may show the parent alone. Read-outs that look alike come from different tables or passages of the source.

T3 sequence (Q9UQD0 whole entry): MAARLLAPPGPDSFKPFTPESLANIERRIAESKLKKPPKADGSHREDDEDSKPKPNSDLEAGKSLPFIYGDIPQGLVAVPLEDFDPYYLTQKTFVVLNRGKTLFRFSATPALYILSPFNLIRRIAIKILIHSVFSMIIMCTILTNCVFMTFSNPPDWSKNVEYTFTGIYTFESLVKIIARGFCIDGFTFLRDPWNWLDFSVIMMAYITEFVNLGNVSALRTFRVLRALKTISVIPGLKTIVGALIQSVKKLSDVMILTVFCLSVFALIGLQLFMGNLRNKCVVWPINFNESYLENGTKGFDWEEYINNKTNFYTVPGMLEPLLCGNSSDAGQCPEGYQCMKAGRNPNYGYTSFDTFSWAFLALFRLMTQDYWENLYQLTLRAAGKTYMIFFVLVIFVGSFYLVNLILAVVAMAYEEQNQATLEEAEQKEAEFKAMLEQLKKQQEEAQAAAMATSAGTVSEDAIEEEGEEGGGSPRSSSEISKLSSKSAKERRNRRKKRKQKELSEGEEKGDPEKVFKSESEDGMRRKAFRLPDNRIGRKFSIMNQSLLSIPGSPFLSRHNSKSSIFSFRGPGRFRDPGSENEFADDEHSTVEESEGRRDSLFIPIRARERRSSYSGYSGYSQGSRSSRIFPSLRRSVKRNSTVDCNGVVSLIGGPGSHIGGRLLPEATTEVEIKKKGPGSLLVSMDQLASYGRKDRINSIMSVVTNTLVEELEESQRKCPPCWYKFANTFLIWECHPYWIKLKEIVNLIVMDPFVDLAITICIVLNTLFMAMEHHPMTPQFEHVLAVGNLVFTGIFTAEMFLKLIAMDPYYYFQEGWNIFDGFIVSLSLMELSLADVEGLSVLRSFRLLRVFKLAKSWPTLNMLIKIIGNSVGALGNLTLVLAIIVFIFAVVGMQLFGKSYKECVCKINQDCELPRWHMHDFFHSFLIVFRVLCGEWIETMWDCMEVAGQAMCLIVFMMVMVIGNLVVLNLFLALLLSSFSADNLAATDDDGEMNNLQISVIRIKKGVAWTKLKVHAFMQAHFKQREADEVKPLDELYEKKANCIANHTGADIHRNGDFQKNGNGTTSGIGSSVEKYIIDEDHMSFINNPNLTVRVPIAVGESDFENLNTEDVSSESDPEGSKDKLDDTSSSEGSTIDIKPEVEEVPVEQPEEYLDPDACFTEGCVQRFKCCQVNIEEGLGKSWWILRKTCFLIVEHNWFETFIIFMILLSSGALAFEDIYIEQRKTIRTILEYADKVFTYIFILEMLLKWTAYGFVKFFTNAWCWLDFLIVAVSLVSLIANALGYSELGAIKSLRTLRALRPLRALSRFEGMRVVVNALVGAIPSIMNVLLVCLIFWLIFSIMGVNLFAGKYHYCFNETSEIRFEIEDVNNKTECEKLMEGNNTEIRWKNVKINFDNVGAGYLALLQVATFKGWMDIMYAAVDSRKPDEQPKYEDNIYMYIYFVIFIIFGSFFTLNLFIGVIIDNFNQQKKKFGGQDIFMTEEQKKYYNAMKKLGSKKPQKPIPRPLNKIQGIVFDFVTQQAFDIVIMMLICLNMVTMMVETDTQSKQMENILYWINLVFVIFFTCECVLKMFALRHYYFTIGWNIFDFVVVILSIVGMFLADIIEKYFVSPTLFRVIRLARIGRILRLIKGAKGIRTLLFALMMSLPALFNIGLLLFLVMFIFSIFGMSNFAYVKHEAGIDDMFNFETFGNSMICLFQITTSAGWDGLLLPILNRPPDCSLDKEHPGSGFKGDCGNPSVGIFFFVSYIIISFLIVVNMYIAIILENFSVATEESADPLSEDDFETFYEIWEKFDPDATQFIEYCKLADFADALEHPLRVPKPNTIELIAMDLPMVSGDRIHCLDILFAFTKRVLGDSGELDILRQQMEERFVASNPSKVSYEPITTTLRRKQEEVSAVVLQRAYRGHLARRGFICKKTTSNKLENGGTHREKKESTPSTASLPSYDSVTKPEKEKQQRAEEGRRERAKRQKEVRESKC
T2 sequence (Q14524 other isoform, or with tags, fused parts or gaps): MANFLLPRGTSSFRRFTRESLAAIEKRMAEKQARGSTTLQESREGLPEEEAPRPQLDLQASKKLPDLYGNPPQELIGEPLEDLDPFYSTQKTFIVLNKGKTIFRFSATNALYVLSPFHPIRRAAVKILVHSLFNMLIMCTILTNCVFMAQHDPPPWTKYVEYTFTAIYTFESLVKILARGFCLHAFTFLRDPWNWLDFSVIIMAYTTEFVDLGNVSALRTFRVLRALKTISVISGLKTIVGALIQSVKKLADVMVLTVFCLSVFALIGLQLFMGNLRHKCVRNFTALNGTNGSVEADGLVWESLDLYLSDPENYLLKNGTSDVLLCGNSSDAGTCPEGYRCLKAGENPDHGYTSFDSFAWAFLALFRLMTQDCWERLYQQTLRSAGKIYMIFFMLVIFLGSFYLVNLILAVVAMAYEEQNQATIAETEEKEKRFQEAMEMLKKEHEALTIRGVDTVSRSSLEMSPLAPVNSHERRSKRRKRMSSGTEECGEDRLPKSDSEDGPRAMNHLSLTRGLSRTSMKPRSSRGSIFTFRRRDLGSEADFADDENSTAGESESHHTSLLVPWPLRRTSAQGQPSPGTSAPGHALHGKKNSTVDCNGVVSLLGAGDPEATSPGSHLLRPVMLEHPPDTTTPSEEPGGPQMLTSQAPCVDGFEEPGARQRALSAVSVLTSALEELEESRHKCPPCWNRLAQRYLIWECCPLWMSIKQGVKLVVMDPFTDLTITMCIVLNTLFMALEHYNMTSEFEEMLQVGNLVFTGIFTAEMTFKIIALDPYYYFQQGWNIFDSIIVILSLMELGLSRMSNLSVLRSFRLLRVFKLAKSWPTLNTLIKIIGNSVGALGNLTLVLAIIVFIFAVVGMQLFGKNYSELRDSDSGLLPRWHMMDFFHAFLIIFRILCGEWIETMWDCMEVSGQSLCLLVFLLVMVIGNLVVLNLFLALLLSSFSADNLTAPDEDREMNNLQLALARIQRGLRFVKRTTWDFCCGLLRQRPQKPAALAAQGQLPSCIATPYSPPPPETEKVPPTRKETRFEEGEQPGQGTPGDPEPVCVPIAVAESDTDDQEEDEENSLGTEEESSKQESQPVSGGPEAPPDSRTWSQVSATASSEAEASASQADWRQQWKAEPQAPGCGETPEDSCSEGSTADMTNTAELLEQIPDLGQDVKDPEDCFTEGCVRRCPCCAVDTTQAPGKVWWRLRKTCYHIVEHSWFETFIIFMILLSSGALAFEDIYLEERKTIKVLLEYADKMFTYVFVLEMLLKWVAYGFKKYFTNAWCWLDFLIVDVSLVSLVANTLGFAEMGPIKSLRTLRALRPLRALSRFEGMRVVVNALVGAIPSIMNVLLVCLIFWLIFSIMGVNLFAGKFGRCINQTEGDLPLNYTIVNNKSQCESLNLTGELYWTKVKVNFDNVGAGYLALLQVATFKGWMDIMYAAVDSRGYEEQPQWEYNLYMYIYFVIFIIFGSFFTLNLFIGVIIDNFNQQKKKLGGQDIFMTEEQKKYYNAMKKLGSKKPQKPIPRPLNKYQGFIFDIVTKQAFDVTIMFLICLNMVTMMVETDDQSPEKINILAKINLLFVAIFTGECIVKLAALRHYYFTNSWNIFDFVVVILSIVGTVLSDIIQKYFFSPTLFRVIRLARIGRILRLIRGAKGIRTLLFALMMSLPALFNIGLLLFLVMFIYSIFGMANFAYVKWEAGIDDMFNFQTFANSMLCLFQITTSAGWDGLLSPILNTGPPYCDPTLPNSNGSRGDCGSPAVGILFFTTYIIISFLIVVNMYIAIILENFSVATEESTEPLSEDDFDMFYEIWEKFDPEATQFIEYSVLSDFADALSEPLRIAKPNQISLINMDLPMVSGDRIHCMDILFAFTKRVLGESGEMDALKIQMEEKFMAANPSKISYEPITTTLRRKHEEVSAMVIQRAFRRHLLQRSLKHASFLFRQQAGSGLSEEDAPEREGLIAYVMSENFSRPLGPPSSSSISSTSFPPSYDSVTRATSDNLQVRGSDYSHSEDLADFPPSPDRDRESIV

As for `Cc1c(OC2(C)CCN(Cc3ccccc3)C2)cc(F)c(S(=O)(=O)Nc2nccs2)c1F` (racemic) [Example 228, rac-4-((1-benzyl-3-methylpyrrolidin-3-yl)oxy)-2,6-difluoro-3-methyl-N-(thiazol-2-yl)benzenesulfonamide 2,2,2-trifluoroacetate], the negative-log IC50 (pIC50) in data set [1] was 5.28; in data set [2], 4.64; in data set [3], 7.51.

Consider `C[C@H](c1cc(C2CC2)ccc1F)N1CCC(Oc2ccc(S(=O)(=O)Nc3cscn3)cc2Cl)CC1` (stereo in doubt) [Example 320], for which the negative-log IC50 (pIC50) was 5.37 in data set [1], 5.32 in data set [2] and 5.49 in data set [3].

For `O=S(=O)(Nc1nccs1)c1cc(Cl)c(O[C@@H]2C[C@H]3CC[C@@H](C2)N3Cc2ccccc2)cc1F` [Example 17, 4-(((1R,3s,5S)-8-benzyl-8-azabicyclo[3.2.1]octan-3-yl)oxy)-5-chloro-2-fluoro-N-(thiazol-2-yl)benzenesulfonamide], the negative-log IC50 (pIC50) was less than 4.52 in data set [1]; 6.81 in data set [4]; less than 5.00 in data set [5]; less than 4.52 in data set [6]; 6.41 in data set [3] (setting [8]).

As for `CN(c1cc(F)c(S(=O)(=O)Nc2nccs2)cc1Cl)C1CCN(Cc2ccccc2)CC1` [Example 53, 4-((1-benzylpiperidin-4-yl)(methyl)amino)-5-chloro-2-fluoro-N-(thiazol-2-yl)benzenesulfonamide], the negative-log IC50 (pIC50) in data set [1] is 5.13; in data set [6], 4.61; in data set [3] (setting [8]), 6.22.

For `C[C@@H](c1ccccc1)N1CCC(Oc2ccc(S(=O)(=O)Nc3nccs3)cc2Cl)CC1` [Example 58, (S)-3-chloro-4-((1-(1-phenylethyl)piperidin-4-yl)oxy)-N-(thiazol-2-yl)benzenesulfonamide 2,2,2-trifluoroacetate], the pIC50 in data set [4] was 7.03; in data set [2], 5.25; in data set [3] it was 6.40.

On to `CN(c1cc(F)c(S(=O)(=O)Nc2cscn2)cc1Cl)[C@H]1CCN(Cc2cnn(Cc3ccccc3)c2)C1` [Example 165, (S)-4-((1-((1-benzyl-1H-pyrazol-4-yl)methyl)pyrrolidin-3-yl)(methyl)amino)-5-chloro-2-fluoro-N-(thiazol-4-yl)benzene-sulfonamide formate], for which the results for the pIC50 in data set [1], in data set [2] and in data set [3] were 5.34, 5.16 and 5.48, respectively.

Turning to `CN(c1cc(F)c(S(=O)(=O)Nc2cscn2)cc1Cl)[C@H]1CCN(Cc2cccc3cccnc23)C1` [Example 170, (S)-5-chloro-2-fluoro-4-(methyl(1-(quinolin-8-ylmethyl)-pyrrolidin-3-yl)amino)-N-(thiazol-4-yl)benzene-sulfonamide formate], the negative logarithm of the IC50 (pIC50) was 4.95 in data set [1], 4.67 in data set [2] and 5.79 in data set [3].

As for `COc1cccnc1CN1CC[C@H](N(C)c2cc(F)c(S(=O)(=O)Nc3cscn3)cc2Cl)C1` [Example 176, (S)-5-chloro-2-fluoro-4-((1-((3-methoxypyridin-2-yl)methyl)pyrrolidin-3-yl)(methyl)amino)-N-(thiazol-4-yl)benzene-sulfonamide formate], the negative logarithm of the IC50 (pIC50) was less than 4.52 in data set [1], less than 4.52 in data set [2] and 6.13 in data set [3].

With `CN(c1cc(F)c(S(=O)(=O)Nc2cscn2)cc1Cl)[C@H]1CCN(CCc2ccccc2)C1` [Example 179, (S)-5-chloro-2-fluoro-4-(methyl(1-phenethylpyrrolidin-3-yl)amino)-N-(thiazol-4-yl)benzene-sulfonamide formate], the pIC50 in data set [1] was 5.16; in data set [2], 4.69; in data set [3] it was 5.31.

Regarding `Cc1ccc(CN2CC[C@H](N(C)c3cc(F)c(S(=O)(=O)Nc4cscn4)cc3Cl)C2)s1` [Example 189, (S)-5-chloro-2-fluoro-4-(methyl(1-((5-methylthiophen-2-yl)methyl)pyrrolidin-3-yl)amino)-N-(thiazol-4-yl)benzene-sulfonamide formate], the pIC50 in data set [1] is 5.13; in data set [2], 4.78; in data set [3] it was 5.73.

Take `CN(c1cc(F)c(S(=O)(=O)Nc2cscn2)cc1Cl)[C@H]1CCN(Cc2ccc3[nH]ccc3c2)C1` [Example 190, (S)-4-((1-((1H-indol-5-yl)methyl)pyrrolidin-3-yl)(methyl)amino)-5-chloro-2-fluoro-N-(thiazol-4-yl)benzene-sulfonamide formate]: the negative-log IC50 (pIC50) in data set [1] was 5.29; in data set [2], 5.08; in data set [3], 5.63.

`C[C@H](c1ccccc1)N1CCC(N(C)c2cc(F)c(S(=O)(=O)Nc3cscn3)cc2Cl)CC1` [Example 280, (R)-5-chloro-2-fluoro-4-(methyl(1-(1-phenylethyl)piperidin-4-yl)amino)-N-(thiazol-4-yl)benzenesulfonamide formate]: the negative-log IC50 (pIC50) in data set [1] is 4.76; in data set [6], 4.57; in data set [3] (setting [8]), 6.64.

For `Cc1cc(S(=O)(=O)Nc2cscn2)c(F)cc1N(C)C1CCN([C@H](C)c2ccccc2)CC1` [Example 281, (R)-2-fluoro-5-methyl-4-(methyl(1-(1-phenylethyl)piperidin-4-yl)amino)-N-(thiazol-4-yl)benzenesulfonamide 2,2,2-trifluoroacetate], the results for the pIC50 in data set [1], in data set [6] and in data set [3] (setting [8]) were 4.84, 4.88 and 7.68, respectively.

As for `Cc1cccc(CN2CC[C@H](N(C)c3cc(F)c(S(=O)(=O)Nc4ncns4)c(F)c3C)C2)n1` [Example 296, 2,2,2-trifluoroacetate], the negative logarithm of the IC50 (pIC50) in data set [1] is less than 4.52; in data set [4] it was 8.70; in data set [2], less than 4.52; in data set [3] (setting [8]), 8.00.

Turning to `Cc1cccc(CN2CC[C@H](N(C)c3cc(F)c(S(=O)(=O)Nc4ncns4)c(F)c3Cl)C2)n1` [Example 297, (S)-3-chloro-2,6-difluoro-4-(methyl (1-((6-methylpyridin-2-yl)methyl)pyrrolidin-3-yl)amino)-N-(1,2,4-thiadiazol-5-yl)benzenesulfonamide 2,2,2-trifluoroacetate], the pIC50 in data set [1] is less than 4.52; in data set [4], 7.92; in data set [2] it was less than 4.52; in data set [3] it was 7.21.

For `C[C@H](c1cc(Cl)ccc1F)N1CCC(Oc2ccc(S(=O)(=O)Nc3cscn3)cc2Cl)CC1` [Example 315, (R)-3-chloro-4-((1-(1-(5-chloro-2-fluorophenyl)ethyl)piperidin-4-yl)oxy)-N-(thiazol-4-yl)benzenesulfonamide], the pIC50 in data set [1] was 5.25; in data set [4] it was 6.42; in data set [5], 5.37; in data set [3] (setting [8]), 5.97; in data set [7], 5.19.

Turning to `O=S(=O)(Nc1cscn1)c1ccc(O[C@@H]2C[C@H]3CC[C@@H](C2)N3Cc2cc(Cl)ccc2F)c(Cl)c1` [Example 316, 3-chloro-4-(((1R,3s,5S)-8-(5-chloro-2-fluorobenzyl)-8-azabicyclo[3.2.1]octan-3-yl)oxy)-N-(thiazol-4-yl)benzenesulfonamide formate], the negative logarithm of the IC50 (pIC50) in data set [1] was 5.55; in data set [6], 5.29; in data set [3] (setting [8]), 5.41.

In the case of `O=S(=O)(Nc1cscn1)c1ccc(O[C@@H]2C[C@H]3CC[C@@H](C2)N3Cc2ccccc2)c(Cl)c1` [Example 318, 4-(((1R,3s,5S)-8-benzyl-8-azabicyclo[3.2.1]octan-3-yl)oxy)-3-chloro-N-(thiazol-4-yl)benzenesulfonamide], the pIC50 in data set [1] is 4.86; in data set [4], 5.94; in data set [5] it was less than 5.00; in data set [6], 4.76; in data set [3] (setting [8]), 5.26.

`O=S(=O)(Nc1cscn1)c1ccc(O[C@@H]2C[C@H]3CC[C@@H](C2)N3Cc2ccc(F)c(Cl)c2)c(Cl)c1` [Example 319, 3-chloro-4-(((1R,3s,5S)-8-(3-chloro-4-fluorobenzyl)-8-azabicyclo[3.2.1]octan-3-yl)oxy)-N-(thiazol-4-yl)benzenesulfonamide formate]: the negative-log IC50 (pIC50) was 5.43 in data set [1], 5.60 in data set [6] and 5.48 in data set [3] (setting [8]).

As to `Cc1c(N(C)[C@H]2CCN(Cc3ccccc3)C2)ccc(S(=O)(=O)Nc2cscn2)c1F` [Example 321, (S)-4-((1-benzylpyrrolidin-3-yl)(methyl)amino)-2-fluoro-3-methyl-N-(thiazol-4-yl)benzenesulfonamide 2,2,2-trifluoroacetate], the pIC50 is 4.91 in data set [1]; 6.86 in data set [4]; less than 5.00 in data set [5]; 6.45 in data set [3] (setting [8]); 4.67 in data set [7].

Take `CN(c1ccc(S(=O)(=O)Nc2ncns2)cc1Cl)[C@H]1CCN(Cc2cc(F)cc(F)c2)C1` [Example 327, (S)-3-chloro-4-((1-(3,5-difluorobenzyl)pyrrolidin-3-yl)(methyl)amino)-N-(1,2,4-thiadiazol-5-yl)benzenesulfonamide formate]: the pIC50 was 4.76 in data set [1], less than 4.52 in data set [2] and 5.98 in data set [3].
